According to patent publication US8969325B2, “TRPV1 antagonists” (AbbVie Inc., priority 2011, dated 2015):

Legend:
rats = assay: Sodium iodoacetate-induced knee joint osteoarthritic pain model (hind limb grip force); format: in vivo; details: rat, po, single acute dose, 1 hour after administration, 20 days after sodium iodoacetate, read-out: % effect (% return to normalcy of hind limb grip force)
Description: Unilateral knee joint osteoarthritis was induced in the rats by a single intra-articular (i.a.) injection of sodium iodoacetate (3 mg in 0.05 mL sterile isotonic saline) into the right knee joint cavity under light isoflurane anesthesia using a 26 G needle. […] Pain behavioral assessment of hind limb grip force was conducted by recording the maximum compressive force exerted on the hind limb strain gauge setup, in a commercially available grip force measurement system (Columbus Instruments, Columbus, Ohio). The grip force data was converted to a maximum hindlimb cumulative compressive force (CFmax) (gram force)/kg body weight for each animal. The analgesic effects of test compounds were determined 20 days following the i.a. injection of sodium iodoacetate. The vehicle control group for each compound being tested was assigned 0% whereas the age matched naïve group was assigned as being 100% (normal). The % effect for each dose group was then expressed as % return to normalcy compared to the naïve group. Test compounds were administered orally in 10% ethanol/20% Tween 80/70% polyethylene glycol-400 vehicle at a volume of 2 mL/kg. The assessment of the analgesic effects of test compounds was made 1 hour following oral administration. The assessment of the analgesic effects of test compounds can be made following a single dose or following repeated administration wherein the frequency of dosing is 1 to 2 times daily. The duration of such repeated daily dosing may last for any time greater than one day. A typical duration of repeated daily dosing is about 5 days to about 12 days.

human TRPV1 [1] = biological target: T1, human TRPV1 (Homo sapiens (Human), UniProt Q8NER1); assay: Acid Activation Assay (pH 5.0, intracellular Ca2+, FLIPR); format: cell-based; details: percentage of the maximal pH 5.0-induced response remaining; recombinant HEK293 hTRPV1 cells; maximum concentration tested 37.5 μM
Procedure, shortened: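 Readout: peak [Ca2+]i fluorescence over baseline on FLIPR, expressed as percentage remaining of the maximal pH 5.0-evoked signal. Stable hTRPV1-HEK293 cells with Calcium-4 dye received compound (12 half-log concentrations, maximum 37.5 μM) 3 min before acidic pH 5.0 buffer.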

human TRPV1 [2] = biological target: T1, human TRPV1; assay: Capsaicin Activation Assay (intracellular Ca2+, FLIPR); format: cell-based; details: recombinant HEK293 cells expressing hTRPV1, 50 nM capsaicin
Procedure, shortened: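 Ca2+ fluorescence was recorded by FLIPR every 1 to 5 seconds in HEK293 cells, clonally selected for stable human TRPV1 expression and plated one day ahead. Test compounds came as serial dilutions of 10 mM DMSO stocks.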

T1 sequence (Q8NER1 whole entry): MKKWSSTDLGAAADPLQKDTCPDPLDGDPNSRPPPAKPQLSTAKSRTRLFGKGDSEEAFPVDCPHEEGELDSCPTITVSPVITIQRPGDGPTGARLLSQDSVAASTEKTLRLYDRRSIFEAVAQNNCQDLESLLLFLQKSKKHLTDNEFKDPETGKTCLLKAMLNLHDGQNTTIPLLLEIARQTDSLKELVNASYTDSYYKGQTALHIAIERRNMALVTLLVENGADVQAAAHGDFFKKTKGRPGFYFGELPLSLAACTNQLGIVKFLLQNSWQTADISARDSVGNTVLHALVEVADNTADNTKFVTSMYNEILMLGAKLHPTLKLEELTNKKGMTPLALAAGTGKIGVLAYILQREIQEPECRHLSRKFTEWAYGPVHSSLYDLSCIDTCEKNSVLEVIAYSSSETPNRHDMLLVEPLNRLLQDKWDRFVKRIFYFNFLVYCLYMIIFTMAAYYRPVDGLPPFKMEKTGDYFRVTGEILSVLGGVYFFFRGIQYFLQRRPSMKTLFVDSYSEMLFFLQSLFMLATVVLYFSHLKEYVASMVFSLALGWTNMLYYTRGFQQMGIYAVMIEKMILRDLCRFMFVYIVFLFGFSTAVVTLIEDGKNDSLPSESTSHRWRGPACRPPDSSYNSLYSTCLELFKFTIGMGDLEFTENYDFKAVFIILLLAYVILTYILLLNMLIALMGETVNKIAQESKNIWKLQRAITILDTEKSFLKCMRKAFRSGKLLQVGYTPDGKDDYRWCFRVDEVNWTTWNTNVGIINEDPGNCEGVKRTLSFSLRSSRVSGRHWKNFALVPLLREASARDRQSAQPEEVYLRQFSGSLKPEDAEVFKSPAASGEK

| Structure (SMILES) | human TRPV1 H^+ (max % remain) (human TRPV1 [1]) [%] | IC50 (human TRPV1 [2]) [nM] | inhibition in vivo at 14 mg/kg (rats; 14 mg/kg) [%] | inhibition in vivo at 12 mg/kg (rats; 12 mg/kg) [%] | inhibition in vivo at 10 mg/kg (rats) [%] |
| --- | --- | --- | --- | --- | --- |
| CN1C(=O)NCc2c(NC(=O)N[C@@H]3CC(CF)(CF)Oc4cc(Cl)ccc43)cccc21 [Example 2, 1-[(4R)-7-chloro-2,2-bis(fluoromethyl)-3,4-dihydro-2H-chromen-4-yl]-3-(1-methyl-2-oxo-1,2,3,4-tetrahydroquinazolin-5-yl)urea] | 21 | 36 | 36 |  |  |
| CN1C(=O)NCc2c(NC(=O)N[C@@H]3C[C@@](C)(C(F)F)Oc4ccccc43)cccc21 [Example 13, 1-[(2S,4R)-2-(difluoromethyl)-2-methyl-3,4-dihydro-2H-chromen-4-yl]-3-(1-methyl-2-oxo-1,2,3,4-tetrahydroquinazolin-5-yl)urea] | 41 | 53 |  | 63 |  |
| O=C1CCc2ccc(NC(=O)N[C@@H]3CC(CF)(CF)Oc4cc(Cl)ccc43)cc2N1 [Example 31, 1-[(4R)-7-chloro-2,2-bis(fluoromethyl)-3,4-dihydro-2H-chromen-4-yl]-3-(2-oxo-1,2,3,4-tetrahydroquinolin-7-yl)urea] | 36 |  |  |  | 24 |
| CC1(C)C[C@@H](NC(=O)Nc2ccc3c(c2)NC(=O)CC3)c2ccc(C(F)(F)F)cc2O1 [Example 32, 1-[(4R)-2,2-dimethyl-7-(trifluoromethyl)-3,4-dihydro-2H-chromen-4-yl]-3-(2-oxo-1,2,3,4-tetrahydroquinolin-7-yl)urea] | 37 | 36 |  |  | 22 |
| C[C@]1(C(F)(F)F)C[C@@H](NC(=O)Nc2ccc3c(c2)NC(=O)CC3)c2ccccc2O1 [Example 34, 1-[(2R,4R)-2-methyl-2-(trifluoromethyl)-3,4-dihydro-2H-chromen-4-yl]-3-(2-oxo-1,2,3,4-tetrahydroquinolin-7-yl)urea] | 34 | 7 |  |  | 46 |

Second part, led by results:

| human TRPV1 H^+ (max % remain) (human TRPV1 [1]) [%] | IC50 (human TRPV1 [2]) [nM] | Structure (SMILES) | inhibition in vivo at 14 mg/kg (rats; 14 mg/kg) [%] | inhibition in vivo at 12 mg/kg (rats; 12 mg/kg) [%] | inhibition in vivo at 10 mg/kg (rats) [%] |
| --- | --- | --- | --- | --- | --- |
| 38 | 4 | O=C1CCc2ccc(NC(=O)N[C@@H]3CCc4cc(C(F)(F)F)ccc43)cc2N1 [Example 35, 1-(2-oxo-1,2,3,4-tetrahydroquinolin-7-yl)-3-[(1R)-5-(trifluoromethyl)-2,3-dihydro-1H-inden-1-yl]urea] |  |  | 42 |
| 34 | 14 | CC1(C)C[C@@H](NC(=O)Nc2ccc3c(c2)NC(=O)CC3)c2ccc(Cl)c(F)c2O1 [Example 39, 1-[(4R)-7-chloro-8-fluoro-2,2-dimethyl-3,4-dihydro-2H-chromen-4-yl]-3-(2-oxo-1,2,3,4-tetrahydroquinolin-7-yl)urea] |  |  | 50 |
| 30 | 32 | CCC1(CC)C[C@@H](NC(=O)Nc2ccc3c(c2)NC(=O)CC3)c2cccc(F)c2O1 [Example 222, 1-[(4R)-2,2-diethyl-8-fluoro-3,4-dihydro-2H-chromen-4-yl]-3-(2-oxo-1,2,3,4-tetrahydroquinolin-7-yl)urea] |  |  | 26 |
| 0 | 4.5 | O=C1COc2c(cccc2NC(=O)N[C@@H]2CC(CF)(CF)Oc3cc(Cl)ccc32)N1 [Example 323, 1-[(4R)-7-chloro-2,2-bis(fluoromethyl)-3,4-dihydro-2H-chromen-4-yl]-3-(3-oxo-3,4-dihydro-2H-1,4-benzoxazin-8-yl)urea] |  |  |  |
| 83 | 21 | CC1(C)C[C@@H](NC(=O)Nc2ccc3c(c2)NC(=O)CO3)c2ccc(Cl)c(F)c2O1 [Example 325, 1-[(4R)-7-chloro-8-fluoro-2,2-dimethyl-3,4-dihydro-2H-chromen-4-yl]-3-(3-oxo-3,4-dihydro-2H-1,4-benzoxazin-6-yl)urea] |  |  |  |
| 80 | 32 | CN1C(=O)CCc2ccc(NC(=O)N[C@@H]3C[C@](C)(C(F)(F)F)Oc4ccccc43)cc21 [Example 326, 1-(1-methyl-2-oxo-1,2,3,4-tetrahydroquinolin-7-yl)-3-[(2R,4R)-2-methyl-2-(trifluoromethyl)-3,4-dihydro-2H-chromen-4-yl]urea] |  |  |  |
